This note sets out measurements from ChEMBL document CHEMBL5291721, “A preclinical secondary pharmacology resource illuminates target-adverse drug reaction associations of marketed drugs” (Nat Commun, 2023).

Molecules are shown by their SMILES.

Assay [1] has as its target T1, Alpha-1A adrenergic receptor (Homo sapiens, UniProt P35348).
T1 sequence (P35348 whole entry): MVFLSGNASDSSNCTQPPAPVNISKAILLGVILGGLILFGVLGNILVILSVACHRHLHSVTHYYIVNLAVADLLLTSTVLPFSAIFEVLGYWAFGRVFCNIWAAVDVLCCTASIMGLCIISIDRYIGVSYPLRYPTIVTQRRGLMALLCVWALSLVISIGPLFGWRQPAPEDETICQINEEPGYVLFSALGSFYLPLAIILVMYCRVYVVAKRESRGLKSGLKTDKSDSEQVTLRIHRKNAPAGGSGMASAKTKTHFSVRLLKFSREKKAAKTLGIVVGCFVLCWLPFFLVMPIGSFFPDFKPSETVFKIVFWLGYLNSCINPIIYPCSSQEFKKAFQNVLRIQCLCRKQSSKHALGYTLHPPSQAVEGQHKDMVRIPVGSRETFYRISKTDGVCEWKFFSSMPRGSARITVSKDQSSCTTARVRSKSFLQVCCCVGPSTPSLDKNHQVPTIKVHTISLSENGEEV

Assay [2] has as its target T2, Corticotropin-releasing factor receptor 2 (Homo sapiens, UniProt Q13324).
T2 sequence (Q13324 whole entry): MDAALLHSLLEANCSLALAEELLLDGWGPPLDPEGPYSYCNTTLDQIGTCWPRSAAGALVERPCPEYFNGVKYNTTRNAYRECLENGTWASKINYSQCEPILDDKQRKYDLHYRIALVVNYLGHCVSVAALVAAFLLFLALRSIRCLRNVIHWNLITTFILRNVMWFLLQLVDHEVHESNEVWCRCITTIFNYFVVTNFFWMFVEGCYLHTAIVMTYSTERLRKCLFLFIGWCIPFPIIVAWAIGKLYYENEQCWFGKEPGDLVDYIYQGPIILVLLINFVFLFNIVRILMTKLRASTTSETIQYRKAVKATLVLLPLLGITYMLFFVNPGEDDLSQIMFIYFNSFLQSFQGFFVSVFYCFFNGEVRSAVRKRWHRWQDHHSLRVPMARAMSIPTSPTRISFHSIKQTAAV

Assay [3] addresses T3, Neuropeptide Y receptor type 2 (Homo sapiens, UniProt P49146).
T3 sequence (P49146 whole entry): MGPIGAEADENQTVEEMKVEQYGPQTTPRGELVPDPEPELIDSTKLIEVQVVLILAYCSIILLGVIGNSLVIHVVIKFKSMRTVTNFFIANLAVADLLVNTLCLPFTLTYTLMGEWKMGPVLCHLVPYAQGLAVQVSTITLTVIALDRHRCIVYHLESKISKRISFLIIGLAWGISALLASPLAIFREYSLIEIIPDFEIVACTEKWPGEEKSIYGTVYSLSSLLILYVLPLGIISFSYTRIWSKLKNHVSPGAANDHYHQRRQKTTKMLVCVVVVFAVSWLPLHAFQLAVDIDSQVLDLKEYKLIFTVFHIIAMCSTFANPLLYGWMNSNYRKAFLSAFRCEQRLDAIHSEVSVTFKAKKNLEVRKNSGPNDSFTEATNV

Assay [4] deals with T4, Peroxisome proliferator-activated receptor gamma (Homo sapiens, UniProt P37231).
T4 sequence (P37231 whole entry): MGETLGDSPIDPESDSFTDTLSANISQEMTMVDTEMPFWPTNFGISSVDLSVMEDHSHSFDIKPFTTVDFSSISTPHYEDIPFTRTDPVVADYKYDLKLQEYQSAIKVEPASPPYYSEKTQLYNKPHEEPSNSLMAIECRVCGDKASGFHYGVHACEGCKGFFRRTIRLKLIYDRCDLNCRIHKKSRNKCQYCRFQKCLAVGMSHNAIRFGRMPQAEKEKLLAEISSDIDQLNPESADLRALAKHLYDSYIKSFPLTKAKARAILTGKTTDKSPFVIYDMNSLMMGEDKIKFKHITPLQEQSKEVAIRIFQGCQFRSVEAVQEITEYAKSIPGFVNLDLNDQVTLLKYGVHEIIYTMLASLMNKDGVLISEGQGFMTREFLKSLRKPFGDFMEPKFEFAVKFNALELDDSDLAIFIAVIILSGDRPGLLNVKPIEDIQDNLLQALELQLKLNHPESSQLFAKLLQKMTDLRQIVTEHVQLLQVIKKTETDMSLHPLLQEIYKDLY
It is filed as functional.

The next assay deals with T5, Adenosine receptor A1 (Homo sapiens, UniProt P30542).
T5 sequence (P30542 whole entry): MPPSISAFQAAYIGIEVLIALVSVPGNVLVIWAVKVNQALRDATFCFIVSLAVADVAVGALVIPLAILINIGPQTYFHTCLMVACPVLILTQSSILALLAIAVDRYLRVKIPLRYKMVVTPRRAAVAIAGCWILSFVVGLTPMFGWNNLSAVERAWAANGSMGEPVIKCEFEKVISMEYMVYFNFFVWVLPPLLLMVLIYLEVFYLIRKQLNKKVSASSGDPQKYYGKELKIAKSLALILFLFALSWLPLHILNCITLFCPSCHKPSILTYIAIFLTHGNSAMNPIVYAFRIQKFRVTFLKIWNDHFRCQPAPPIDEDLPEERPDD

For a further assay, the target named is T6, Estrogen receptor (Homo sapiens, UniProt P03372).
T6 sequence (P03372 whole entry): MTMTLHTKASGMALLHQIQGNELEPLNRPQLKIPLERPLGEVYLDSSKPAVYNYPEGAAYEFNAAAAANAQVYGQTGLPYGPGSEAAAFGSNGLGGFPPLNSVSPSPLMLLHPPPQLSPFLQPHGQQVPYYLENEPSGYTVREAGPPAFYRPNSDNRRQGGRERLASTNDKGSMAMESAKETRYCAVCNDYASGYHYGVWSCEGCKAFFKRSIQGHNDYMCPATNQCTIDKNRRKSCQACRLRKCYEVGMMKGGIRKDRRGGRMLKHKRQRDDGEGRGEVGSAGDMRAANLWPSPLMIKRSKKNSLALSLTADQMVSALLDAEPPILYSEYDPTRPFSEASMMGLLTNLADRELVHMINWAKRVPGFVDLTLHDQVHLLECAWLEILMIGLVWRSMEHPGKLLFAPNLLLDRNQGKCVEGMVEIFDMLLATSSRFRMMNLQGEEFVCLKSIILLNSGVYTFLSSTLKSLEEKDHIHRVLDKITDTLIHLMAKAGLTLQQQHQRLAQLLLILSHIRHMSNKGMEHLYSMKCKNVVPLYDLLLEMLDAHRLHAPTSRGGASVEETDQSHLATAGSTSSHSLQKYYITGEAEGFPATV

Another assay concerns the target Mu-type opioid receptor (Homo sapiens, UniProt P35372). The assay is described as follows: biochemical. It is filed as functional.
Further: assay procedure not described here.

Sequence of Mu-type opioid receptor (P35372 whole entry): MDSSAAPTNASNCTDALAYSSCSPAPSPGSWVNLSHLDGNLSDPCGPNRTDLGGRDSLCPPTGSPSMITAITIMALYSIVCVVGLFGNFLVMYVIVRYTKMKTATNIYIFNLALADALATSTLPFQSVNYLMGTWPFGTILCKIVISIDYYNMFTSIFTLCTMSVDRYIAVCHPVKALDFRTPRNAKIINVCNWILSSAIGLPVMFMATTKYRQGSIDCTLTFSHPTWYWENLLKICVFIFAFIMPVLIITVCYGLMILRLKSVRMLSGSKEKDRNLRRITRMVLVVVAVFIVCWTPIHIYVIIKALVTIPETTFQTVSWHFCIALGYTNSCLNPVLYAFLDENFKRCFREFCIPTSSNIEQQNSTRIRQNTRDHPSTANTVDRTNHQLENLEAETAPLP

Regarding `Cc1onc(-c2ccccc2)c1-c1ccc(S(N)(=O)=O)cc1` [VALDECOXIB], the AC50 (in general, the midpoint of the concentration-response curve, whichever way the signal moves) in assay [1] is > 10 µM; in assay [2] it was > 30 µM; in assay [3] it was > 30 µM; in assay [4], > 30 µM.

For `OC[C@H]1O[C@@](CO)(O[C@H]2O[C@H](CO)[C@@H](O)[C@H](O)[C@H]2O)[C@@H](O)[C@@H]1O` [SUCROSE], the AC50 (at Adenosine receptor A1; at Estrogen receptor; on Mu-type opioid receptor; in assay [4]) was > 30 µM throughout.

With `COc1cc2nccc(Oc3ccc(NC(=O)C4(C(=O)Nc5ccc(F)cc5)CC4)cc3)c2cc1OC` [CABOZANTINIB], the AC50 in assay [4] was > 30 µM.

`N[C@@H](CC(=O)N1CCn2c(nnc2C(F)(F)F)C1)Cc1cc(F)c(F)cc1F` [SITAGLIPTIN]: the AC50 in assay [3] was > 10 µM; in assay [4] it was > 30 µM.

On to `CC(S)C(=O)NCC(=O)O` (configuration not stated) [TIOPRONIN], for which the AC50 in assay [4] is > 30 µM.

As to `CCN1CCN(Cc2ccc(Nc3ncc(F)c(-c4cc(F)c5nc(C)n(C(C)C)c5c4)n3)nc2)CC1` [ABEMACICLIB], the AC50 in assay [4] was > 30 µM.

With `COc1ccccc1OCCNCC(O)COc1cccc2[nH]c3ccccc3c12` (configuration not stated) [CARVEDILOL], the AC50 in assay [1] is 0.0194 µM; in assay [2] it was > 30 µM; on Estrogen receptor it was > 30 µM; in assay [3], > 30 µM; at Mu-type opioid receptor it was 5.2 µM; in assay [4] it was > 30 µM.

As for `C[C@H](CCC(=O)O)[C@H]1CC[C@H]2[C@@H]3[C@@H](O)C[C@@H]4C[C@H](O)CC[C@]4(C)[C@H]3CC[C@]12C` [URSODIOL], in assay [4], the concentration at half-maximal activity (AC50) is > 30 µM.

Consider `CC(C)c1nc(N(C)S(C)(=O)=O)nc(-c2ccc(F)cc2)c1/C=C/[C@@H](O)C[C@@H](O)CC(=O)O` [ROSUVASTATIN], for which the AC50 (at Estrogen receptor; on Mu-type opioid receptor; in assay [4]) was > 30 µM each time.

`C=CC[C@@H]1/C=C(\C)C[C@H](C)C[C@H](OC)[C@H]2O[C@@](O)(C(=O)C(=O)N3CCCC[C@H]3C(=O)O[C@H](/C(C)=C/[C@@H]3CC[C@@H](O)[C@H](OC)C3)[C@H](C)[C@@H](O)CC1=O)[C@H](C)C[C@@H]2OC` [TACROLIMUS ANHYDROUS]: the half-maximal activity concentration (AC50) was > 10 µM in assay [1]; > 30 µM in assay [2]; > 30 µM at Estrogen receptor; > 30 µM in assay [3]; > 30 µM on Mu-type opioid receptor; > 30 µM in assay [4].

For the compound `COc1cc2nc(N3CCN(C(=O)C4CCCO4)CC3)nc(N)c2cc1OC` (configuration not stated) [TERAZOSIN], the AC50 (at Adenosine receptor A1; in assay [2]; at Estrogen receptor; in assay [3]; at Mu-type opioid receptor) was > 30 µM throughout.

With `CN1C[C@H](C(=O)N[C@]2(C)O[C@@]3(O)[C@@H]4CCCN4C(=O)[C@H](Cc4ccccc4)N3C2=O)C=C2c3cccc4[nH]cc(c34)C[C@H]21` [ERGOTAMINE], the half-maximal activity concentration (AC50) in assay [4] was > 30 µM.

As for `C[C@@H](Oc1cc(-c2cnn(C3CCNCC3)c2)cnc1N)c1c(Cl)ccc(F)c1Cl` [CRIZOTINIB], the AC50 in assay [3] and in assay [4] was > 30 µM each time.
